From ChEMBL document CHEMBL1149481, “Inhibitors of epidermal growth factor receptor tyrosine kinase: optimisation of potency and in vivo pharmacokinetics” (Bioorg Med Chem Lett, 2006)

Legend:
Mus musculus [1] = experiment: Free drug level in mouse plasma at 50 mg/kg, po at 6 hrs; format: ADME, organism-based; design: dose 50 mg/kg, route oral; conditions: in vivo
[2] = Volume of distribution in Wistar rat at 2 mg/kg, iv and 10 mg/kg, po; format: ADME, organism-based; conditions: in vivo, read-out: Vdss
Mus musculus [3] = experiment: Free drug level in mouse plasma at 50 mg/kg, po at 24 hrs; format: ADME, organism-based; design: dose 50 mg/kg, route oral; conditions: in vivo
Mus musculus [4] = experiment: Free drug level in mouse plasma at 50 mg/kg, po at 4 hrs; format: ADME, organism-based; design: dose 50 mg/kg, route oral; conditions: in vivo
Rattus norvegicus [5] = experiment: AUC in Wistar rat at 10 mg/kg, po normalized to 1 mg/kg; format: ADME, organism-based, Plasma; conditions: in vivo
[6] = Bioavailability in Wistar rat at 2 mg/kg, iv and 10 mg/kg, po; format: ADME, organism-based; conditions: in vivo
in vivo = conditions: Wistar, rat, iv, 2 mg/kg
Mus musculus [7] = experiment: Free drug level in mouse plasma at 50 mg/kg, po at 2 hrs; format: ADME, organism-based; design: dose 50 mg/kg, route oral; conditions: in vivo
Rattus norvegicus [8] = experiment: AUC in Wistar rat at 5 mg/kg, po normalized to 1 mg/kg; format: ADME, organism-based, Plasma; conditions: in vivo
[9] = Bioavailability in Wistar rat at 2 mg/kg, iv and 5 mg/kg, po; format: ADME, organism-based; conditions: in vivo
[10] = Clearance in Wistar rat at 2 mg/kg, iv and 5 mg/kg, po; format: ADME, organism-based; conditions: in vivo
[11] = Volume of distribution in Wistar rat at 2 mg/kg, iv and 5 mg/kg, po; format: ADME, organism-based; conditions: in vivo, read-out: Vdss
[12] = Cmax in nude mouse xenografted with human LoVo cell at 50 mg/kg, po, twice daily; format: ADME, organism-based; design: route oral, dose 50 mg/kg; conditions: in vivo
[13] = Cmax in nude mouse xenografted with human LoVo cell at 50 mg/kg, po; format: ADME, organism-based; design: dose 50 mg/kg, route oral; conditions: in vivo
[14] = AUC in nude mouse xenografted with human LoVo cell at 50 mg/kg, po; format: ADME, organism-based; design: dose 50 mg/kg, route oral; conditions: in vivo
[15] = AUC in nude mouse xenografted with human LoVo cell at 100 mg/kg, po; format: ADME, organism-based; design: dose 100 mg/kg, route oral; conditions: in vivo
[16] = Half life in rat; format: ADME, organism-based; conditions: in vivo
[17] = Cmax in nude mouse xenografted with human LoVo cell at 100 mg/kg, po; format: ADME, organism-based; design: dose 100 mg/kg, route oral; conditions: in vivo
[18] = AUC in nude mouse xenografted with human LoVo cell at 50 mg/kg, po, twice daily; format: ADME, organism-based; design: dose 50 mg/kg; conditions: in vivo
[19] = Terminal half life in human; format: ADME, organism-based; conditions: in vivo, read-out: beta t1/2 (converted)
[20] = Volume of distribution in rat; format: ADME, organism-based; conditions: in vivo
[21] = Terminal half life in cancer affected human; format: ADME, organism-based; conditions: in vivo, read-out: beta t1/2 (converted)

Question: With `COc1cc2ncnc(Nc3cc(Cl)ccc3F)c2cc1OCCCN1CCOCC1` as the compound, how does the Cp (Mus musculus [1]) read?
Answer: Its Cp is 170 nM.

Question: What about the Vd [2] of the same compound?
Answer: The Vd was 3.5 L/kg.

Question: What about the Cp (Mus musculus [3]) of the same compound?
Answer: The Cp was 0 nM.

Question: And the Cp (Mus musculus [4])?
Answer: The Cp was 360 nM.

Question: And the AUC (Rattus norvegicus [5])?
Answer: Its AUC is 1.64 µM·h.

Question: What about the bioavailability [6] of the same compound?
Answer: The bioavailability was 71%.

Question: What about the clearance (in vivo) of the same compound?
Answer: The clearance was 16 mL/min/kg.

Question: And the Cp (Mus musculus [7])?
Answer: Its Cp is 300 nM.

Question: Which results are given for `COCCN1CCC(Oc2cc3c(Nc4cccc(Cl)c4F)ncnc3cc2OC)CC1`?
Answer: AUC (Rattus norvegicus [8]): 0.95 µM·h; bioavailability [9]: 30%; pKa (physchem): 8.1; clearance [10]: 11 mL/min/kg; Vd [11]: 1.3 L/kg

Question: Which results are given for `COc1cc2ncnc(Nc3cccc(Cl)c3F)c2cc1OC1CCN(S(C)(=O)=O)CC1`?
Answer: Cmax [12]: 23900 nM; Cmax [13]: 30600 nM; AUC (Rattus norvegicus [8]): 1.18 µM·h; AUC [14]: 225 µM·h; AUC [15]: 450 µM·h; half-life [16]: 1.6 h; Cmax [17]: 36800 nM; AUC [18]: 286 µM·h; bioavailability [9]: 45%; clearance [10]: 13 mL/min/kg; Vd [11]: 1.5 L/kg

Question: For `COc1cc2ncnc(Nc3ccc(F)c(Cl)c3)c2cc1OC1CCN(C)CC1`, which pKa (physchem) is on record?
Answer: Its pKa is 8.8.

Question: For `COc1cc2ncnc(Nc3cccc(Cl)c3F)c2cc1OCC1CCN(C)CC1`, which pKa (physchem) is on record?
Answer: The pKa was 9.3.

Question: For `COc1cc2ncnc(Nc3cc(Cl)ccc3F)c2cc1OC1CCN(C)CC1`, which pKa (physchem) is on record?
Answer: Its pKa is 8.8.

Question: Which results are given for `COc1cc2ncnc(Nc3cccc(Cl)c3F)c2cc1OC1CCN(CC(N)=O)CC1`?
Answer: AUC (Rattus norvegicus [8]): 0.59 µM·h; bioavailability [9]: 27%; pKa (physchem): 6.7; clearance [10]: 16 mL/min/kg; Vd [11]: 2.7 L/kg

Question: For `COc1cc2ncnc(Nc3ccc(F)c(Cl)c3)c2cc1OCCCN1CCOCC1` [GEFITINIB], which half-life [19] is on record?
Answer: The half-life was 28 h.

Question: And the Vd [20]?
Answer: Its Vd is 5.8 L/kg.

Question: What about the Cmax [13] of the same compound?
Answer: The Cmax was 8100 nM.

Question: What about the Cp (Mus musculus [1]) of the same compound?
Answer: The Cp was 150 nM.

Question: And the AUC [14]?
Answer: The AUC was 78.7 µM·h.

Question: What about the AUC [15] of the same compound?
Answer: The AUC was 85.9 µM·h.

Question: What about the half-life [21] of the same compound?
Answer: Its half-life is 37 h.

Question: And the Vd [2]?
Answer: The Vd was 5.8 L/kg.

Question: What about the Cp (Mus musculus [3]) of the same compound?
Answer: The Cp was 10 nM.

Question: What about the half-life [16] of the same compound?
Answer: Its half-life is 7 h.

Question: And the Cmax [17]?
Answer: The Cmax was 6700 nM.

Question: What about the Cp (Mus musculus [4]) of the same compound?
Answer: Its Cp is 130 nM.

Question: What about the AUC (Rattus norvegicus [5]) of the same compound?
Answer: The AUC was 0.32 µM·h.

Question: And the bioavailability [6]?
Answer: The bioavailability was 56%.

Question: And the Cp (Mus musculus [7])?
Answer: Its Cp is 260 nM.

Question: Which pKa (physchem) does the source give for `COc1cc2ncnc(Nc3ccc(F)c(Cl)c3)c2cc1OCC1CCN(C)CC1` here?
Answer: The pKa was 9.3.

Question: With `COc1cc2ncnc(Nc3cccc(Cl)c3F)c2cc1OC1CCN(C)CC1` as the compound, how does the AUC (Rattus norvegicus [8]) read?
Answer: The AUC was 0.08 µM·h.

Question: What about the bioavailability [9] of the same compound?
Answer: Its bioavailability is 74%.

Question: What about the pKa (physchem) of the same compound?
Answer: The pKa was 8.8.

Question: And the clearance [10]?
Answer: Its clearance is 129 mL/min/kg.

Question: And the Vd [11]?
Answer: Its Vd is 20.8 L/kg.

Question: For `COc1cc2ncnc(Nc3cc(Cl)ccc3F)c2cc1OC1CCN(CC(N)=O)CC1`, which pKa (physchem) is on record?
Answer: The pKa was 6.7.

Question: With `COc1cc2c(Nc3ccc(Br)cc3F)ncnc2cc1OCC1CCN(C)CC1` [VANDETANIB] as the compound, how does the pKa (physchem) read?
Answer: The pKa was 9.3.

Question: For `COCCN1CCC(Oc2cc3c(Nc4cc(Cl)ccc4F)ncnc3cc2OC)CC1`, which pKa (physchem) is on record?
Answer: Its pKa is 8.1.

Question: Which pKa (physchem) does the source give for `COc1cc2ncnc(Nc3cc(Cl)ccc3F)c2cc1OCC1CCN(C)CC1` here?
Answer: The pKa was 9.3.

Question: Which results are given for `COc1cc2ncnc(Nc3cccc(Cl)c3F)c2cc1OCCCN1CCOCC1`?
Answer: Cp (Mus musculus [1]): 410 nM; Vd [2]: 4.3 L/kg; Cp (Mus musculus [3]): 10 nM; Cp (Mus musculus [4]): 680 nM; AUC (Rattus norvegicus [5]): 0.94 µM·h; bioavailability [6]: 73%; clearance (in vivo): 29 mL/min/kg; Cp (Mus musculus [7]): 430 nM
